Experimental data taken from US10035790B2, “RORγ modulators” (BRISTOL-MYERS SQUIBB COMPANY, priority 2012, dated 2018).

These compounds were tested against T1, ligand binding domain of human RORγ (A262-S507) (Homo sapiens, UniProt P51449) (assay: General RORγ SPA binding assay (competition with [3H]25-hydroxycholesterol)). Conditions: RORγ SPA binding assay, inhibition of [3H]25-hydroxycholesterol binding; read-out: IC50.
T1 construct: made in house; host or cells: E. coli
T1 sequence (P51449 262-507): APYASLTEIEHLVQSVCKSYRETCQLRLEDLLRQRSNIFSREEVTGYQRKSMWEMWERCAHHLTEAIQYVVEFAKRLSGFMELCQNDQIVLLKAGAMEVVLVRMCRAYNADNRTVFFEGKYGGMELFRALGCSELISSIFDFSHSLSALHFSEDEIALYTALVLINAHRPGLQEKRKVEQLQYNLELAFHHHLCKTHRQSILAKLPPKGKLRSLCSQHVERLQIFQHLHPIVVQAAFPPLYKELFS
In short: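 Step one: compound meets 50 nM nickel-purified, His-tagged protein from E. coli for 15 min at room temperature (PBS, 0.5% fatty acid free BSA). Step two: radioligand is added for another 15 min. Step three: SPA beads are added for 30 min before scintillation reading and IC50 fitting.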

Point of comparison: Cc1ncc(C(C)(O)CNc2ccnc(C(F)(F)F)n2)c(C2CCN(C(=O)Nc3c(F)cccc3C(F)(F)F)CC2)n1 (centres unmarked) [Compound D18, N-[2-Fluoro-6-(trifluoromethyl)phenyl]-4-[5-(1-hydroxy-1-methyl-2-{[2-(trifluoromethyl)pyrimidin-4-yl]amino}ethyl)-2-methylpyrimidin-4-yl]piperidine-1-carboxamide], IC50 0.112 µM. Against it:
- Cc1ncc(C(C)(O)CNc2ccnc(C(F)(F)F)n2)c(C2CCN(C(=O)Cc3c(F)cccc3F)CC2)n1 (centres unmarked) [Compound D5, 2-(2,6-difluorophenyl)-1-(4-(5-(2-hydroxy-1-((2-(trifluoromethyl)pyrimidin-4-yl)amino)propan-2-yl)-2-methylpyrimidin-4-yl)piperidin-1-yl)ethanone] — 13-fold lower, 0.0084 µM
- Cc1cc(C)nc(NCC(C)(O)c2cnc(C)nc2C2CCN(C(=O)Cc3c(F)cccc3F)CC2)c1 (centres unmarked) [Compound D6, 2-(2,6-difluorophenyl)-1-(4-(5-(1-((4,6-dimethylpyridin-2-yl)amino)-2-hydroxypropan-2-yl)-2-methylpyrimidin-4-yl)piperidin-1-yl)ethanone] — 4.8-fold lower, 0.0233 µM
- Cc1ncc(C(C)(O)CNc2ccnc(Cl)c2)c(C2CCN(C(=O)Cc3c(F)cccc3F)CC2)n1 (centres unmarked) [Compound D7, 1-(4-(5-(1-((2-chloropyridin-4-yl)amino)-2-hydroxypropan-2-yl)-2-methylpyrimidin-4-yl)piperidin-1-yl)-2-(2,6-difluorophenyl)ethanone] — within 1.5-fold, 0.08 µM
- Cc1ncc(C(C)(O)CNc2cc(C(F)(F)F)ccn2)c(C2CCN(C(=O)Cc3c(F)cccc3F)CC2)n1 (centres unmarked) [Compound D8, 2-(2,6-difluorophenyl)-1-(4-(5-(2-hydroxy-1-((4-(trifluoromethyl)pyridin-2-yl)amino)propan-2-yl)-2-methylpyrimidin-4-yl)piperidin-1-yl)ethanone] — within 1.5-fold, 0.105 µM
- Cc1ccnc(NCC(C)(O)c2cnc(C)nc2C2CCN(C(=O)Cc3c(F)cccc3F)CC2)c1 (centres unmarked) [Compound D9, 2-(2,6-difluorophenyl)-1-(4-(5-(2-hydroxy-1-((4-methylpyridin-2-yl)amino)propan-2-yl)-2-methylpyrimidin-4-yl)piperidin-1-yl)ethanone] — within 1.5-fold, 0.118 µM
- Cc1ncc(C(C)(O)CNc2ccn(C)n2)c(C2CCN(C(=O)Cc3c(F)cccc3F)CC2)n1 (centres unmarked) [Compound D10, 2-(2,6-difluorophenyl)-1-(4-(5-(2-hydroxy-1-((1-methyl-1H-pyrazol-3-yl)amino)propan-2-yl)-2-methylpyrimidin-4-yl)piperidin-1-yl)ethanone] — 39-fold higher, 4.38 µM
- Cc1cc(C)cc(OCC(C)(O)c2cnc(C)nc2C2CCN(C(=O)Cc3c(F)cccc3F)CC2)c1 (centres unmarked) [Compound D11, 2-(2,6-Difluorophenyl)-1-(4-(5-(1-(3,5-dimethylphenoxy)-2-hydroxypropan-2-yl)-2-methylpyrimidin-4-yl)piperidin-1-yl)ethanone] — 7.7-fold lower, 0.0145 µM
- Cc1ncc(C(C)(O)COc2cccc(Cl)c2)c(C2CCN(C(=O)Cc3c(F)cccc3F)CC2)n1 (centres unmarked) [Compound D12, 1-(4-(5-(1-(3-chlorophenoxy)-2-hydroxypropan-2-yl)-2-methylpyrimidin-4-yl)piperidin-1-yl)-2-(2,6-difluorophenyl)ethanone] — 18-fold lower, 0.0062 µM
- Cc1ncc(C(C)(O)COc2cncc(Cl)c2)c(C2CCN(C(=O)Cc3c(F)cccc3F)CC2)n1 (centres unmarked) [Compound D13, 1-(4-(5-(1-((5-chloropyridin-3-yl)oxy)-2-hydroxypropan-2-yl)-2-methylpyrimidin-4-yl)piperidin-1-yl)-2-(2,6-difluorophenyl)ethanone] — 13-fold lower, 0.0089 µM
- Cc1ncc(C(C)(O)COc2cccnc2)c(C2CCN(C(=O)Cc3c(F)cccc3F)CC2)n1 (centres unmarked) [Compound D14, 2-(2,6-difluorophenyl)-1-(4-(5-(2-hydroxy-1-(pyridin-3-yloxy)propan-2-yl)-2-methylpyrimidin-4-yl)piperidin-1-yl)ethanone] — 4.3-fold higher, 0.481 µM
- Cc1cc(C)cc(CCC(C)(O)c2cnc(C)nc2C2CCN(C(=O)Cc3c(F)cccc3F)CC2)c1 (centres unmarked) [Compound D15, 2-(2,6-Difluorophenyl)-1-(4-(5-(4-(3,5-dimethylphenyl)-2-hydroxybutan-2-yl)-2-methylpyrimidin-4-yl)piperidin-1-yl)ethanone] — 3.3-fold lower, 0.0339 µM
- Cc1ncc(C(C)(O)CNc2cccc(C(F)(F)F)n2)c(C2CCN(C(=O)Nc3c(F)cccc3F)CC2)n1 (centres unmarked) [Compound D16, N-(2,6-Difluorophenyl)-4-[5-(1-hydroxy-1-methyl-2-{[6-(trifluoromethyl)pyridin-2-yl]amino}ethyl)-2-methylpyrimidin-4-yl]piperidine-1-carboxamide] — 9.1-fold lower, 0.0123 µM
- Cc1ncc(C(C)(O)CNc2ccnc(C(F)(F)F)n2)c(C2CCN(C(=O)Nc3c(F)cccc3F)CC2)n1 (centres unmarked) [Compound D17, N-(2,6-Difluorophenyl)-4-[5-(1-hydroxy-1-methyl-2-{[2-(trifluoromethyl)pyrimidin-4-yl]amino}ethyl)-2-methylpyrimidin-4-yl]piperidine-1-carboxamide] — within 1.5-fold, 0.0888 µM
- Cc1ncc(C(C)(O)CN(C)c2ccnc(C(F)(F)F)n2)c(C2CCN(C(=O)Nc3c(F)cccc3F)CC2)n1 (centres unmarked) [Compound D19, N-(2,6-Difluorophenyl)-4-[5-(1-hydroxy-1-methyl-2-{methyl[2-(trifluoromethyl)pyrimidin-4-yl]amino}ethyl)-2-methylpyrimidin-4-yl]piperidine-1-carboxamide] — 1.8-fold higher, 0.196 µM
- Cc1ncc(C(C)(O)CN(C)c2ccnc(C(F)(F)F)n2)c(C2CCN(C(=O)Cc3c(F)cccc3F)CC2)n1 (centres unmarked) [Compound D20, 2-(4-{1-[(2,6-Difluorophenyl)acetyl]piperidin-4-yl}-2-methylpyrimidin-5-yl)-1-{methyl[2-(trifluoromethyl)pyrimidin-4-yl]amino}propan-2-ol] — 1.5-fold lower, 0.0728 µM
- Cc1ncc(C(C)(O)CNc2nccc(C(F)(F)F)n2)c(C2CCN(C(=O)Nc3c(F)cccc3F)CC2)n1 (centres unmarked) [Compound D21, N-(2,6-Difluorophenyl)-4-[5-(1-hydroxy-1-methyl-2-{[4-(trifluoromethyl)pyrimidin-2-yl]amino}ethyl)-2-methylpyrimidin-4-yl]piperidine-1-carboxamide] — 2.3-fold lower, 0.0477 µM
- Cc1ncc(C(C)(O)CNc2nccc(C(F)(F)F)n2)c(C2CCN(C(=O)Nc3c(F)cccc3C(F)(F)F)CC2)n1 (centres unmarked) [Compound D22, N-[2-Fluoro-6-(trifluoromethyl)phenyl]-4-[5-(1-hydroxy-1-methyl-2-{[4-(trifluoromethyl)pyrimidin-2-yl]amino}ethyl)-2-methylpyrimidin-4-yl]piperidine-1-carboxamide] — within 1.5-fold, 0.0761 µM
- Cc1ncc(C(C)(O)CNc2nccc(C(F)(F)F)n2)c(C2CCN(C(=O)Cc3c(F)cccc3F)CC2)n1 (centres unmarked) [Compound D23, 2-(4-{1-[(2,6-Difluorophenyl)acetyl]piperidin-4-yl}-2-methylpyrimidin-5-yl)-1-{[4-(trifluoromethyl)pyrimidin-2-yl]amino}propan-2-ol] — 6.1-fold lower, 0.0185 µM
- Cc1ncc(C(C)(O)COc2cccc(C(F)(F)F)n2)c(C2CCN(C(=O)Cc3c(F)cccc3F)CC2)n1 (centres unmarked) [Compound D24, 2-(4-{1-[(2,6-difluorophenyl)acetyl]piperidin-4-yl}-2-methylpyrimidin-5-yl)-1-{[6-(trifluoromethyl)pyridin-2-yl]oxy}propan-2-ol] — 22-fold lower, 0.005 µM
- Cc1ncc(C(C)(O)COc2cccc(C(F)(F)F)n2)c(C2CCN(C(=O)Nc3c(F)cccc3F)CC2)n1 (centres unmarked) [Compound D25, N-(2,6-difluorophenyl)-4-[5-(1-hydroxy-1-methyl-2-{[6-(trifluoromethyl)pyridin-2-yl]oxy}ethyl)-2-methylpyrimidin-4-yl]piperidine-1-carboxamide] — 13-fold lower, 0.0087 µM
- CSc1ncc(C(C)(O)COc2cccc(C(F)(F)F)n2)c(C2CCN(C(=O)Nc3c(F)cccc3F)CC2)n1 (centres unmarked) [Compound D26, N-(2,6-Difluorophenyl)-4-[5-(1-hydroxy-1-methyl-2-{[6-(trifluoromethyl)pyridin-2-yl]oxy}ethyl)-2-(methylthio)pyrimidin-4-yl]piperidine-1-carboxamide] — 8.9-fold lower, 0.0126 µM
- CC(O)(COc1cccc(C(F)(F)F)n1)c1cnc(N)nc1C1CCN(C(=O)Nc2c(F)cccc2F)CC1 (centres unmarked) [Compound D27, 4-[2-Amino-5-(1-hydroxy-1-methyl-2-{[6-(trifluoromethyl)pyridin-2-yl]oxy}ethyl)pyrimidin-4-yl]-N-(2,6-difluorophenyl)piperidine-1-carboxamide] — 31-fold lower, 0.0036 µM
- CSc1ncc(C(C)(O)COc2ccnc(C(F)(F)F)n2)c(C2CCN(C(=O)Nc3c(F)cccc3F)CC2)n1 (centres unmarked) [Compound D28, N-(2,6-Difluorophenyl)-4-[5-(1-hydroxy-1-methyl-2-{[2-(trifluoromethyl)pyrimidin-4-yl]oxy}ethyl)-2-(methylthio)pyrimidin-4-yl]piperidine-1-carboxamide] — 7.6-fold lower, 0.0147 µM
- CC(O)(COc1ccnc(C(F)(F)F)n1)c1cnc(N)nc1C1CCN(C(=O)Nc2c(F)cccc2F)CC1 (centres unmarked) [Compound D29, 4-[2-Amino-5-(1-hydroxy-1-methyl-2-{[2-(trifluoromethyl)pyrimidin-4-yl]oxy}ethyl)pyrimidin-4-yl]-N-(2,6-difluorophenyl)piperidine-1-carboxamide] — 7.8-fold lower, 0.0144 µM
- CC(O)(COc1ccnc(C(F)(F)F)n1)c1cnc(N)nc1C1CCN(C(=O)Cc2c(F)cccc2F)CC1 (centres unmarked) [Compound D30, 2-(2-Amino-4-{1-[(2,6-difluorophenyl)acetyl]piperidin-4-yl}pyrimidin-5-yl)-1-{[2-(trifluoromethyl)pyrimidin-4-yl]oxy}propan-2-ol] — 26-fold lower, 0.0043 µM
